ChEMBL document CHEMBL4765420, “Design, synthesis and biological evaluation of novel HDAC inhibitors with improved pharmacokinetic profile in breast cancer” (Eur J Med Chem, 2020)
Active and inactive are the calls of the source. No cut-off for these calls is given here.

What was measured:
[1] = target: Histone deacetylase 2 (Homo sapiens, UniProt Q92769); experiment: Inhibition of human full-length C-terminal FLAG-tagged HDAC2 expressed in baculovirus infected Sf9 insect cells using Ac-Leu-Gly-Lys(Ac)-AMC as substrate measured after 30 mins by fluorescence assay; type: cell-based
Sequence of Histone deacetylase 2 (Q92769 whole entry, the tested form may be a part): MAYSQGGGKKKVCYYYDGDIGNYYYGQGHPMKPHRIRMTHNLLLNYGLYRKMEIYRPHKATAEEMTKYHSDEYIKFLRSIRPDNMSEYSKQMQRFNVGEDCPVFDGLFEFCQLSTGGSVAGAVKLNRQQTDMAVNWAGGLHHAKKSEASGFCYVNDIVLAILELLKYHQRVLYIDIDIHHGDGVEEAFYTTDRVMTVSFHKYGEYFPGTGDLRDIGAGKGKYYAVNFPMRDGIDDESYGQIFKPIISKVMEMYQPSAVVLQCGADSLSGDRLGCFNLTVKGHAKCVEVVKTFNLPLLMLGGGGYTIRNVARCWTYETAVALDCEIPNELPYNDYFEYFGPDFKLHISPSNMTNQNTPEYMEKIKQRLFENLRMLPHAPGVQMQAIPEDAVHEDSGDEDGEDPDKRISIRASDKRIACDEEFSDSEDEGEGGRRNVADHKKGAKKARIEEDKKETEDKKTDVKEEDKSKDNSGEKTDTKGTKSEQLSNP

[2] = target: Histone deacetylase 3/NCoR1 (Homo sapiens, UniProt O15379); experiment: Inhibition of recombinant human GST-fused HDAC3/NCOR1 (397 to 503 residues) expressed in baculovirus infected insect cells using Ac-Leu-Gly-Lys(Ac)-AMC as substrate measured after 30 mins by fluorescence assay
Sequence of Histone deacetylase 3/NCoR1 (O15379 whole entry, the tested form may be a part): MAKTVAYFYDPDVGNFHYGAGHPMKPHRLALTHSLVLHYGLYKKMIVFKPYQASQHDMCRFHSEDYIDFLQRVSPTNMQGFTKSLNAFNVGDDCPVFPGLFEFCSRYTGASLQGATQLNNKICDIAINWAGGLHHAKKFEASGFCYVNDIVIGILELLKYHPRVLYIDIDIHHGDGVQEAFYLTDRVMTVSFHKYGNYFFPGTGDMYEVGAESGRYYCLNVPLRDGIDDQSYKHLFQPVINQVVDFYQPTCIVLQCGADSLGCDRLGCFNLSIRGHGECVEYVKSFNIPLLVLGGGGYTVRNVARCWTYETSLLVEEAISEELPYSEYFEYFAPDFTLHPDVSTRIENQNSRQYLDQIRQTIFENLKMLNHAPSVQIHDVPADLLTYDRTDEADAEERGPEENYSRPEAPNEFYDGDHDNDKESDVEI
Sequence of Histone deacetylase 3/NCoR1 (O75376 whole entry, further chain, the tested form may be a part): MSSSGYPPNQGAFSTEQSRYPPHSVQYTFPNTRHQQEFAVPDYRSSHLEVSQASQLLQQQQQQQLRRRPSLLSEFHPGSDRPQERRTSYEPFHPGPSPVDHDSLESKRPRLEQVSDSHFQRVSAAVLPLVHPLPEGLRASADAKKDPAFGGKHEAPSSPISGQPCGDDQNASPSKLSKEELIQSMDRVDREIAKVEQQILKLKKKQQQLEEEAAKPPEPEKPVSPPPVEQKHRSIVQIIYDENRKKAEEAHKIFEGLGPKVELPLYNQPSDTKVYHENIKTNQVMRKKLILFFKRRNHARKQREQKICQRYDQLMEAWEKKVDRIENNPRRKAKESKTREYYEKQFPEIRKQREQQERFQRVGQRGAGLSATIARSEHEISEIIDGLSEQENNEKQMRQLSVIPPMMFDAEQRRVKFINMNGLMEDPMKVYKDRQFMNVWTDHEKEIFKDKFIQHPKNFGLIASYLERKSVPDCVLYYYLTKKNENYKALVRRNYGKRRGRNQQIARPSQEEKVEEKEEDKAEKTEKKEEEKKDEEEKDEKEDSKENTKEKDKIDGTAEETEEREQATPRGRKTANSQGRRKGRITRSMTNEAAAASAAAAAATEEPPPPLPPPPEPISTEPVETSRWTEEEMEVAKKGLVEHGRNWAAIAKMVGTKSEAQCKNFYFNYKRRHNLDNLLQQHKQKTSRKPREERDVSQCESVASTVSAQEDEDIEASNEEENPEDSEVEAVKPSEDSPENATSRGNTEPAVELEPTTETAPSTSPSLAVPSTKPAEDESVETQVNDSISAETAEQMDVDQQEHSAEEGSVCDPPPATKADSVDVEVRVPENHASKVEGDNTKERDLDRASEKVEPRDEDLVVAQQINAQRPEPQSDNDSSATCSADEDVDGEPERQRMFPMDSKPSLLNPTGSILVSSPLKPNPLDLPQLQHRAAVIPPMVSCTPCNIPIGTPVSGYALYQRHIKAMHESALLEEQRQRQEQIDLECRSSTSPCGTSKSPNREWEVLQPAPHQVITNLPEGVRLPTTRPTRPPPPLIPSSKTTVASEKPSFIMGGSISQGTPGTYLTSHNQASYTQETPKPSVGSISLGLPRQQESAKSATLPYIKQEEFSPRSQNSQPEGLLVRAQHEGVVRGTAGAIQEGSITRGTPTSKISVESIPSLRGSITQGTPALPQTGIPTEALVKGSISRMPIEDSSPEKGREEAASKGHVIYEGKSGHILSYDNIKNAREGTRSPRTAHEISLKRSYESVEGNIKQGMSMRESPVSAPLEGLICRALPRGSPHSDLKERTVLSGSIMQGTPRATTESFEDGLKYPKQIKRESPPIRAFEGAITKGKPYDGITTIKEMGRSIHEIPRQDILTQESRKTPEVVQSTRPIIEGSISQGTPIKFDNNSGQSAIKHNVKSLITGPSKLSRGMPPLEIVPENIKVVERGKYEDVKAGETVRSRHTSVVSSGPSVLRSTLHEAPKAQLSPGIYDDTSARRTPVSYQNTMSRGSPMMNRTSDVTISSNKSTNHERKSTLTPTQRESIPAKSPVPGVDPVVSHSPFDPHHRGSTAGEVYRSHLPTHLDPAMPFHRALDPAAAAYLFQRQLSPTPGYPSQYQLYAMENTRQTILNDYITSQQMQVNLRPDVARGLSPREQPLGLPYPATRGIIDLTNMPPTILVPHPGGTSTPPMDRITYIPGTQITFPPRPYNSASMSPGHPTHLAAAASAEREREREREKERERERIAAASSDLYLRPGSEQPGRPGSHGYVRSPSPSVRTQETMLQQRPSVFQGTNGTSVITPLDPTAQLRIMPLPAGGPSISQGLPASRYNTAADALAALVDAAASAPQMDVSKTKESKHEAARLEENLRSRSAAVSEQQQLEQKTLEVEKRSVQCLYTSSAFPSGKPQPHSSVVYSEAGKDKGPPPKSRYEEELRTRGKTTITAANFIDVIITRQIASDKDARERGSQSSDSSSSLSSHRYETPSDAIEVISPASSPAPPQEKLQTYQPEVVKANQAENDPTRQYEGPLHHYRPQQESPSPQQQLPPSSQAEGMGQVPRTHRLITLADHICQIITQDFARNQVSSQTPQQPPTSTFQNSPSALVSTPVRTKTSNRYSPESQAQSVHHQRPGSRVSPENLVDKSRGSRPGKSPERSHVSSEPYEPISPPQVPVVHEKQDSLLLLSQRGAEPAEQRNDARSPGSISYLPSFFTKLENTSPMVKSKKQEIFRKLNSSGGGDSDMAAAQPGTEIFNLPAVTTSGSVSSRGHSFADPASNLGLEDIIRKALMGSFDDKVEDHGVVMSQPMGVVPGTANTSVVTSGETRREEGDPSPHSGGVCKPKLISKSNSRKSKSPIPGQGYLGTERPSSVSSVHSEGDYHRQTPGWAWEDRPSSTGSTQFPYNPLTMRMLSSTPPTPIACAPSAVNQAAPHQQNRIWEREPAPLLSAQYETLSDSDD

[3] = tested on: MDA-MB-231; experiment: Induction of apoptosis in human MDA-MB-231 cells assessed as increase in cleaved caspase-3 expression at 2.5 to 10 uM measured after 24 hrs by Western blot analysis; type: functional, cell-based; conditions: dose 2.5-10 µM
[4] = tested on: MDA-MB-231; experiment: Induction of apoptosis in human MDA-MB-231 cells assessed as late apoptotic cells at 2.5 uM measured after 24 hrs by Annexin-V/propidium iodide staining based flow cytometry (reference value: 0.71 to 2.94%); type: functional
[5] = tested on: MDA-MB-231; experiment: Induction of apoptosis in human MDA-MB-231 cells assessed as early apoptotic cells at 2.5 uM measured after 24 hrs by Annexin-V/propidium iodide staining based flow cytometry (reference value: 0.69 to 0.92%); type: functional
[6] = tested on: MDA-MB-231; experiment: Induction of autophagy in human MDA-MB-231 cells assessed as increase in LC3II expression at 2.5 to 10 uM measured after 24 hrs by Western blot analysis; type: functional, cell-based; conditions: dose 2.5-10 µM
[7] = tested on: MDA-MB-231; experiment: Antiproliferative activity against human MDA-MB-231 cells measured after 72 hrs by MTT assay; type: functional, cell-based; conditions: MDA-MB-231, 72 h
[8] = tested on: MDA-MB-231; experiment: Induction of apoptosis in human MDA-MB-231 cells assessed as up regulation of Bax expression at 2.5 to 10 uM measured after 24 hrs by Western blot analysis; type: functional, cell-based; conditions: dose 2.5-10 µM
[9] = tested on: MDA-MB-231; experiment: Induction of endoplasmic reticulum stress in human MDA-MB-231 cells assessed as increase in PERK expression at 2.5 to 10 uM measured after 24 hrs by Western blot analysis; type: functional, cell-based; conditions: dose 2.5-10 µM
[10] = tested on: MDA-MB-231; experiment: Induction of autophagy in human MDA-MB-231 cells assessed as decrease in SQSTM1/p62 expression at 2.5 to 10 uM measured after 24 hrs by Western blot analysis; type: functional, cell-based; conditions: dose 2.5-10 µM
[11] = tested on: MDA-MB-231; experiment: Inhibition of cell migration in human MDA-MB-231 cells assessed as increase in E-cadherin expression at 2.5 to 10 uM measured after 24 hrs Western blot analysis; type: functional, cell-based; conditions: dose 2.5-10 µM
[12] = tested on: MDA-MB-231; experiment: Inhibition of cell migration in human MDA-MB-231 cells at 2.5 to 10 uM measured after 24 hrs using crystal violet staining by phase-contrast microscopy based transwell assay; type: functional; conditions: dose 2.5-10 µM
[13] = tested on: MDA-MB-231; experiment: Antiproliferative activity against human MDA-MB-231 cells measured after 96 hrs by MTT assay; type: functional, cell-based; conditions: MDA-MB-231, 96 h
[14] = tested on: MDA-MB-231; experiment: Induction of apoptosis in human MDA-MB-231 cells assessed as viable cells at 5 uM measured after 24 hrs by Annexin-V/propidium iodide staining based flow cytometry (reference value: 95.68 to 98.38%); type: functional; conditions: read-out: Activity
[15] = tested on: MDA-MB-231; experiment: Induction of apoptosis in human MDA-MB-231 cells assessed as increase in cleaved caspase-9 expression at 2.5 to 10 uM measured after 24 hrs by Western blot analysis; type: functional, cell-based; conditions: dose 2.5-10 µM
[16] = target: Histone deacetylase 5 (Homo sapiens, UniProt Q9UQL6); experiment: Inhibition of recombinant human full-length N-terminal GST-tagged HDAC5 expressed in baculovirus infected Sf9 insect cells using AcLeu-Gly-Lys(Tfa)-AMC as substrate measured after 30 mins by fluorescence assay
Sequence of Histone deacetylase 5 (Q9UQL6 whole entry): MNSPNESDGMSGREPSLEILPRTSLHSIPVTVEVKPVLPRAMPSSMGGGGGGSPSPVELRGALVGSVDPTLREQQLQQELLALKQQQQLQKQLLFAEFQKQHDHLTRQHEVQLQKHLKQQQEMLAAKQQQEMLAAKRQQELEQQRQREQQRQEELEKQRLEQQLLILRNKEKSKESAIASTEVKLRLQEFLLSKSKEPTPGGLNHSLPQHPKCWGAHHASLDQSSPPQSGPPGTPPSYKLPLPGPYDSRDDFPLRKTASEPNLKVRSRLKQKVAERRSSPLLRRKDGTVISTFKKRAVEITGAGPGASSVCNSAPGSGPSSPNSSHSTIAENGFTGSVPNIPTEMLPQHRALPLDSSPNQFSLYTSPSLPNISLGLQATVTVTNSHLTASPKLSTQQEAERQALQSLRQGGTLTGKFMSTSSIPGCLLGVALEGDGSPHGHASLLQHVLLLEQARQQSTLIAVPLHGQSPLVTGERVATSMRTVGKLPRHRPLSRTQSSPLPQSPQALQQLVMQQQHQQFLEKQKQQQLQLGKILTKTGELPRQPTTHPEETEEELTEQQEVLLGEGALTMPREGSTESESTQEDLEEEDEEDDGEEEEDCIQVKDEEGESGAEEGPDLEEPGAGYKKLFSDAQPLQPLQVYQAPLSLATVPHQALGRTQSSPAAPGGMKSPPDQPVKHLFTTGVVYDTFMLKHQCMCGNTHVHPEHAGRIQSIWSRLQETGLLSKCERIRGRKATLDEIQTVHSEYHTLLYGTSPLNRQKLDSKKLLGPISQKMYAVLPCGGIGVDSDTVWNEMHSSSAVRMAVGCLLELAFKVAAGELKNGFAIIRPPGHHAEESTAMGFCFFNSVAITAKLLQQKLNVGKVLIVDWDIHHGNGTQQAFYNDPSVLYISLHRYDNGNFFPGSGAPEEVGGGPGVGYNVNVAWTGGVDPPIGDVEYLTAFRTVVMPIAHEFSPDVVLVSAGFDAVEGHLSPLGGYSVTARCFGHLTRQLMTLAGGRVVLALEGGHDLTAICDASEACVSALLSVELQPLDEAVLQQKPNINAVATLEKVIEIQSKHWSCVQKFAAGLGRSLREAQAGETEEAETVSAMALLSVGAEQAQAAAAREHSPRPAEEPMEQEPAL

[17] = tested on: MDA-MB-231; experiment: Induction of apoptosis in human MDA-MB-231 cells assessed as late apoptotic cells at 5 uM measured after 24 hrs by Annexin-V/propidium iodide staining based flow cytometry (reference value: 0.71 to 2.94%); type: functional
[18] = tested on: MDA-MB-231; experiment: Induction of apoptosis in human MDA-MB-231 cells assessed as early apoptotic cells at 5 uM measured after 24 hrs by Annexin-V/propidium iodide staining based flow cytometry (reference value: 0.69 to 0.92%); type: functional
[19] = target: T1, Protein deacetylase HDAC6 (Homo sapiens) (UniProt Q9UBN7); experiment: Inhibition of HDAC6 in human MDA-MB-231 cells assessed as increase in HSP90 acetylation at 2.5 to 10 uM measured after 24 hrs by Western blot analysis; type: cell-based; conditions: dose 2.5-10 µM
T1 sequence (whole entry): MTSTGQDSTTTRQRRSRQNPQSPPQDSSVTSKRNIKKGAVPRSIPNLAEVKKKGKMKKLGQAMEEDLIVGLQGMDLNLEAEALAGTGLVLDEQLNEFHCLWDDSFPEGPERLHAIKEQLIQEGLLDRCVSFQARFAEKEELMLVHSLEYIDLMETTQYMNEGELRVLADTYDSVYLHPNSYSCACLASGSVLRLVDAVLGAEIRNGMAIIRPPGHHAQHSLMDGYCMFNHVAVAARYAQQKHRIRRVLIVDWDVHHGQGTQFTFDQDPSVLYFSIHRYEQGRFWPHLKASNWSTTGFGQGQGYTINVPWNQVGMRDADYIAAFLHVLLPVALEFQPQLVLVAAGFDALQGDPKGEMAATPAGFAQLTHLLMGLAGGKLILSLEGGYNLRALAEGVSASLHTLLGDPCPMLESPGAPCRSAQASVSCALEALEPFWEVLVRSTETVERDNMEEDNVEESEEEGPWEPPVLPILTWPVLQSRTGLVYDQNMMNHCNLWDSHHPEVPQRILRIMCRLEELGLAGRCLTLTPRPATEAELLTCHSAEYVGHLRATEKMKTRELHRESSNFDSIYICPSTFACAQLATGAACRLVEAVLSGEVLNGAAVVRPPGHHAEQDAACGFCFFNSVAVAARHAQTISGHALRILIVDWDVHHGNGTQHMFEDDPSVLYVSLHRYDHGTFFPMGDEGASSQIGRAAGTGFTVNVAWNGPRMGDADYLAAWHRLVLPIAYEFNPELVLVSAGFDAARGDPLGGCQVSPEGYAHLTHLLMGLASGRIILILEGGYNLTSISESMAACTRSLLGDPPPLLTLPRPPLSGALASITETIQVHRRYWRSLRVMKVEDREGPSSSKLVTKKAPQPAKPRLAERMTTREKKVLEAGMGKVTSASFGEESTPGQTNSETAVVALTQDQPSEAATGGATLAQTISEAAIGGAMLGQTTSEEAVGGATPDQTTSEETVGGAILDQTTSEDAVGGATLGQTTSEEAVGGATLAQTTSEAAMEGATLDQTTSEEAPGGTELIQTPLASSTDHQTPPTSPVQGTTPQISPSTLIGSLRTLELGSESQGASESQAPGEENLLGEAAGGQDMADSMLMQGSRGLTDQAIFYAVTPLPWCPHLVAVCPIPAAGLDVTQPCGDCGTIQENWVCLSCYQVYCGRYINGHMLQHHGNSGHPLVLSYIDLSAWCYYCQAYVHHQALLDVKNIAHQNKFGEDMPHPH

COc1cc(OC)c2c(N3CCS(=O)(=O)CC3)nc(-c3cc(C)c(OCCCCCC(=O)NO)c(C)c3)nc2c1
IC50 [1]: 136 nM
IC50 [2]: 106 nM
Activity [3]: Active
Activity [4]: 3.01%
Activity [5]: 11.77%
Activity [6]: Active
IC50 [7]: 898 nM
Activity [8]: Active
Activity [9]: Active
Activity [10]: Active
Activity [11]: Active
inhibition [12]: Active
IC50 [13]: 1340 nM
viability at 5 µM [14]: 71.5%
Activity [15]: Active
IC50 [16]: 688 nM
Activity [17]: 11.79%
Activity [18]: 16.28%
inhibition [19]: Active
